Assay [1] has as its system cells that do not express the odorant receptors (HEK293T). The assay is described as follows: Mock transfection control experiment (Example 5). It is filed as cell-based. As for the experimental part:
Functional dose-response experiments were performed to evaluate the level of DMTS activity of the modified cell line expressing individual putative DMTS receptors. Using a cell-based assay, mouse receptor Olfr1193, Olfr1093, Olfr1097, Olrf166, Olfr169, Olfr738 and Olfr742, and human receptor OR4S2 and OR52N5 were tested in an HEK293T cell line wherein the endogenous RTP1 gene has been activated and the odorant receptor chaperone protein was expressed (described in WO2016/201153). The mouse receptor genes were tagged with a Lucy-FLAG®-Rho tag combination and the human receptors were tagged with a Rho-FLAG® tag combination resulting in a tag:receptor fusion protein for the cell based assay. Receptor genes were co-transfected with the canonical olfactory human G-protein alpha subunit Golf gene and were exposed to increasing concentrations of the malodor odorant. Co-expression of the human Golf activates the Gs transduction pathway that leads to an internal cAMP increase upon binding to the appropriate ligand. Odorant-induced activity was detected by measuring the cAMP increase in the cytosol using an Homogeneous Time Resolved Fluorescence (HTRF) based kit (CisBio, cAMP dynamic 2 kit, cat. 62AM4PEJ). […]

Assay [2] has as its system human receptors OR2L13, OR4C15, OR5AC2, OR8H3, OR11G2 or OR52N2. The assay is described as follows: Ca2+ (Calcium 5 dye, FLIPR) dose-response assay in stable HEK293T cell lines (Example 3). Format: cell-based. To be noted: increasing concentrations of DMTS, co-expressed Galpha15. As for the experimental part: Functional dose-response experiments were performed to evaluate the level of DMTS activity of the modified cell lines expressing individual putative DMTS receptors. A cell line stably expressing a human receptor was generated in a HEK293T cell line for each of the following human receptors: OR2L13, OR4C15, OR5AC2, OR8H3, OR11G2 or OR52N2. The receptors were tagged with a FLAG®-Rho tag combination and stably co-expressed with the human G-protein alpha subunit Gals for the cell based assay. Co-expression of the human Gals activates the Gq transduction pathway that leads to an internal Ca^2+ increase upon binding to the appropriate ligand. Receptors were exposed to increasing concentrations of DMTS. Odorant-induced activity was detected by measuring the Ca^2+ increase in the cytosol using a calcium sensitive fluorescent dye (Molecular Devices, Calcium 5 dye, cat. R8186) and measuring the change in Relative Fluorescence Ratio (RFU) using a fluorometric imaging plate reader (Molecular Devices, FLIPR) following odorant exposure. […] A cell line lacking a receptor was used as a control for non-specific activity at high compound concentrations (‘No receptor’). The activity levels are reported by the potency of the DMTS induced-response for each receptor as a measure of the EC50 value.

In another assay the target is T1, mouse receptor Olfr1093 (Mus musculus, UniProt B2RR12).
T1 construct: cAMP HTRF
T1 sequence (B2RR12 1-322): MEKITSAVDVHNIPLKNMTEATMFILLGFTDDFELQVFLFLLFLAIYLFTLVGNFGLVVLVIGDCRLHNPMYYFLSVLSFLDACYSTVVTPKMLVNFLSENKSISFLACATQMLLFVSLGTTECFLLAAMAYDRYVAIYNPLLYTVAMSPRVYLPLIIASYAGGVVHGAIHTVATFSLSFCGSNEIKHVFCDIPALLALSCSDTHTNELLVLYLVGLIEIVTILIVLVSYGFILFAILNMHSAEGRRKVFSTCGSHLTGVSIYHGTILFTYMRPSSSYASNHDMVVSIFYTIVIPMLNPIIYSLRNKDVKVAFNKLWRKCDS
The assay is described as follows: cell-based dose-response, cAMP increase by HTRF, HEK293T cells (endogenous RTP1 activated) co-transfected with human Golf, Lucy-FLAG-Rho tagged receptor. How it is done: (§1) Functional dose-response experiments were performed to evaluate the level of DMTS activity of the modified cell line expressing individual putative DMTS receptors. Using a cell-based assay, mouse receptor Olfr1193, Olfr1093, Olfr1097, Olrf166, Olfr169, Olfr738 and Olfr742, and human receptor OR4S2 and OR52N5 were tested in an HEK293T cell line wherein the endogenous RTP1 gene has been activated and the odorant receptor chaperone protein was expressed (described in WO2016/201153). The mouse receptor genes were tagged with a Lucy-FLAG®-Rho tag combination and the human receptors were tagged with a Rho-FLAG® tag combination resulting in a tag:receptor fusion protein for the cell based assay. Receptor genes were co-transfected with the canonical olfactory human G-protein alpha subunit Golf gene and were exposed to increasing concentrations of the malodor odorant. Co-expression of the human Golf activates the Gs transduction pathway that leads to an internal cAMP increase upon binding to the appropriate ligand. Odorant-induced activity was detected by measuring the cAMP increase in the cytosol using an Homogeneous Time Resolved Fluorescence (HTRF) based kit (CisBio, cAMP dynamic 2 kit, cat. 62AM4PEJ). […] The activity levels are reported by the potency of the DMTS induced-response for each receptor as a measure of the EC50 value (the effective concentration at which the receptor responds at its half-maximal activation efficacy level for a given compound).
(§2) Functional dose-response experiments were performed to confirm the DMTS activity on the DMTS receptors identified in Example 2 and to further characterize their response to DMDS. Using the same cell-based assay described in Example 2, mouse receptors Olfr1193, Olfr1093, Olfr1097, Olfr166, Olfr169, Olfr738, Olfr742 and of human odorant receptor OR4S2 were tested with increasing concentration of DMTS, DMDS or butyric acid (control). […] A weak response for OR4S2 and Olfr169 to butyric acid was visible but was too weak to consider butyric acid as a representative ligand for these receptors. The activity levels are reported by the potency of DMTS or DMDS induced-response for each receptor as a measure of the EC50 value, EC50DMTS and EC50DMDS respectively. […] Competitive antagonists at the malodor binding site of these receptors have the potential to reduce the unpleasant perception of both DMTS and DMDS.
Background: Time-resolved FRET reads energy transfer from a long-lived donor to a nearby acceptor.

For another assay, the target named is T2, mouse receptor Olfr1193 (Mus musculus, UniProt A2AV13).
T2 construct: cAMP HTRF
T2 sequence (A2AV13 1-318): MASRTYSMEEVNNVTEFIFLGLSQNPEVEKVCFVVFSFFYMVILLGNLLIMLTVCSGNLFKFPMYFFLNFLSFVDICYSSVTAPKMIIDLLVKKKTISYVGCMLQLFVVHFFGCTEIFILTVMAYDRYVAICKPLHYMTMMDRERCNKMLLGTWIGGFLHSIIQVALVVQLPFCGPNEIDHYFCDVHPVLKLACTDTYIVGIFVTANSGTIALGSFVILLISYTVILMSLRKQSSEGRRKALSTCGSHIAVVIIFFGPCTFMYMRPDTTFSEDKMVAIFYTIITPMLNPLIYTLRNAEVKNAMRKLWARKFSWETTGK
The description is as above. How it is done:
as §1, §2

In another assay the target is T3, mouse receptor Olfr738 (Mus musculus, UniProt L7N1X7).
T3 construct: cAMP HTRF
T3 sequence (L7N1X7 1-311): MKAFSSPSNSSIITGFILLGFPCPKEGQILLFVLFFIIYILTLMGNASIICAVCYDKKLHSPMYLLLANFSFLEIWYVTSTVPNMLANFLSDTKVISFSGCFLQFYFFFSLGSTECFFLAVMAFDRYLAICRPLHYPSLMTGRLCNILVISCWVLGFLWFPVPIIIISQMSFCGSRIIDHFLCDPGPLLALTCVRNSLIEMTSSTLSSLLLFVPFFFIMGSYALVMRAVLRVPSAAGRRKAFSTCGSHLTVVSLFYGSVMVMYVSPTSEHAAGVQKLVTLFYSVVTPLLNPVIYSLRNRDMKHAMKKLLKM
The description is as above. How it is done:
as §1, §2

`CSSSC` [DMTS, dimethyl trisulfide]: in assay [1], the “activity upon exposure in mock transfected cells” value is reported as “did not show activity”. Also, in assay [2], the “receptor activity (Ca2+ increase in the cytosol, RFU)” value was “dose-dependent increase of receptor activity”. Moreover, the EC50 at mouse receptor Olfr1093 (FIG. 2, Example 2, SEQ ID NO: 4) was 46 µM; at mouse receptor Olfr1093 (FIG. 5, Example 5, SEQ ID NO: 4) it was 62 µM; on mouse receptor Olfr1193 (FIG. 2, Example 2, SEQ ID NO: 2), 55 µM; on mouse receptor Olfr1193 (FIG. 5, Example 5, SEQ ID NO: 2) it was 16 µM; at mouse receptor Olfr738 (FIG. 2, Example 2, SEQ ID NO: 12), 369 µM; on mouse receptor Olfr738 (FIG. 5, Example 5, SEQ ID NO: 12), 190 µM.

Broadly, the EC50 is the concentration that produces a half-maximal response.

The record behind these values is patent US11787847B2, “Method of identifying malodor modulating compounds” (FIRMENICH SA, priority 2017, dated 2023).
